biological target: T1, full length active recombinant SYK enzyme (Homo sapiens, UniProt P43405); assay: Inhibition of Syk tyrosine phosphorylation activity (LANCE TR-FRET kinase assay); format: biochemical; conditions: 1 nM SYK, 550 nM substrate, 100 μM ATP, 1 hour room temperature
T1 construct: full length active recombinant SYK enzyme (Millipore, Calif.); purchased Millipore

Row | Structure (SMILES) | IC50 [µM]
1 | NC(=O)c1cnc(N[C@@H]2CCCC(F)(F)[C@@H]2N)nc1Nc1ccc2ncsc2c1 [Example 29, 2-(((1R,2R)-2-amino-3,3-difluorocyclohexyl)amino)-4-(benzo[d]thiazol-6-ylamino)pyrimidine-5-carboxamide] | 0.01 to 0.1
2 | NC(=O)c1cnc(N[C@@H]2CCCC(F)(F)[C@@H]2N)nc1Nc1ccc2scnc2c1 [Example 30, 2-(((1R,2R)-2-amino-3,3-difluorocyclohexyl)amino)-4-(benzo[d]thiazol-5-ylamino)pyrimidine-5-carboxamide] | 0.1 to 1
3 | NC(=O)c1cnc(N[C@@H]2CCCC(F)(F)[C@@H]2N)nc1Nc1csc2ncccc12 [Example 31, 2-(((1R,2R)-2-amino-3,3-difluorocyclohexyl)amino)-4-(thieno[2,3-b]pyridin-3-ylamino)pyrimidine-5-carboxamide] | 0.01 to 0.1
4 | Cc1cc(C)cc(Nc2nc(N[C@@H]3CCCC(F)(F)[C@@H]3N)ncc2C(N)=O)c1 [Example 33, 2-(((1R,2R)-2-amino-3,3-difluorocyclohexyl)amino)-4-((3,5-dimethylphenyl)amino)pyrimidine-5-carboxamide] | 0.1 to 1
5 | NC(=O)c1cnc(N[C@H]2[C@@H](N)CCCC2(F)F)nc1Nc1cccc(-n2cccn2)c1 [Example 34, 4-((3-(1H-pyrazol-1-yl)phenyl)amino)-2-(((1S,6S)-6-amino-2,2-difluorocyclohexyl)amino)pyrimidine-5-carboxamide] | 0.001 to 0.01
6 | NC(=O)c1cnc(N[C@H]2[C@@H](N)CCCC2(F)F)nc1Nc1cccc(-c2ncccn2)c1 [Example 35, 2-(((1S,6S)-6-amino-2,2-difluorocyclohexyl)amino)-4-((3-(pyrimidin-2-yl)phenyl)amino)pyrimidine-5-carboxamide] | 0.01 to 0.1
7 | NC(=O)c1cnc(N[C@H]2[C@@H](N)CCCC2(F)F)nc1Nc1csc2ncccc12 [Example 36, 2-(((1S,6S)-6-amino-2,2-difluorocyclohexyl)amino)-4-(thieno[2,3-b]pyridin-3-ylamino)pyrimidine-5-carboxamide] | 0.01 to 0.1
8 | NC(=O)c1cnc(N[C@H]2[C@@H](N)CCCC2(F)F)nc1Nc1cnn2ccccc12 [Example 37, 2-(((1S,6S)-6-amino-2,2-difluorocyclohexyl)amino)-4-(pyrazolo[1,5-a]pyridin-3-ylamino)pyrimidine-5-carboxamide] | 0.01 to 0.1
9 | Cc1ccc(Nc2nc(N[C@H]3[C@@H](N)CCCC3(F)F)ncc2C(N)=O)cc1 [Example 38, 2-(((1S,6S)-6-amino-2,2-difluorocyclohexyl)amino)-4-(p-tolylamino)pyrimidine-5-carboxamide] | 0.01 to 0.1
10 | Cc1cccc(Nc2nc(N[C@H]3[C@@H](N)CCCC3(F)F)ncc2C(N)=O)c1 [Example 39, 2-(((1S,6S)-6-amino-2,2-difluorocyclohexyl)amino)-4-(m-tolylamino)pyrimidine-5-carboxamide] | 0.01 to 0.1
11 | NC(=O)c1cnc(N[C@@H]2CCCC[C@@H]2N)nc1Nc1cnn2ccccc12 [Example 43, 2-(((1R,2S)-2-aminocyclohexyl)amino)-4-(pyrazolo[1,5-a]pyridin-3-ylamino)pyrimidine-5-carboxamide] | 0.001 to 0.01
12 | NC(=O)c1cnc(N[C@@H]2CCCC[C@@H]2N)nc1Nc1csc2ncccc12 [Example 44, 2-(((1R,2S)-2-aminocyclohexyl)amino)-4-(thieno[2,3-b]pyridin-3-ylamino)pyrimidine-5-carboxamide] | 0.001 to 0.01
13 | NC(=O)c1cnc(N[C@@H]2CCCC[C@@H]2N)nc1Nc1cncc(F)c1 [Example 45] | 0.01 to 0.1
14 | Cc1cncc(Nc2nc(N[C@@H]3CCCC[C@@H]3N)ncc2C(N)=O)c1 [Example 46, 2-(((1R,2S)-2-aminocyclohexyl)amino)-4-((5-methylpyridin-3-yl)amino)pyrimidine-5-carboxamide] | 0.01 to 0.1
15 | COc1cncc(Nc2nc(N[C@@H]3CCCC[C@@H]3N)ncc2C(N)=O)c1 [Example 47, 2-(((1R,2S)-2-aminocyclohexyl)amino)-4-((5-methoxypyridin-3-yl)amino)pyrimidine-5-carboxamide] | 0.01 to 0.1
16 | NC(=O)c1cnc(N[C@@H]2CCCC[C@@H]2N)nc1Nc1cncc(-n2cccn2)c1 [Example 48, 4-((5-(1H-pyrazol-1-yl)pyridin-3-yl)amino)-2-(((1R,2S)-2-aminocyclohexyl)amino)pyrimidine-5-carboxamide] | 0.01 to 0.1
17 | Cc1cc(Nc2nc(N[C@@H]3CCCC[C@@H]3N)ncc2C(N)=O)sn1 [Example 49, 2-(((1R,2S)-2-aminocyclohexyl)amino)-4-((3-methylisothiazol-5-yl)amino)pyrimidine-5-carboxamide] | 0.001 to 0.01
18 | NC(=O)c1cnc(N[C@@H]2CCOC[C@@H]2N)nc1Nc1cccc(Cl)c1 [Example 50, 2-(((3R,4R)-3-aminotetrahydro-2H-pyran-4-yl)amino)-4-((3-chlorophenyl)amino)pyrimidine-5-carboxamide] | 0.01 to 0.1

Row | Structure (SMILES) | IC50 [µM]
19 | NC(=O)c1cnc(N[C@@H]2CCOC[C@@H]2N)nc1Nc1ccc(Cl)cc1 [Example 51, 2-(((3R,4R)-3-aminotetrahydro-2H-pyran-4-yl)amino)-4-((4-chlorophenyl)amino)pyrimidine-5-carboxamide] | 0.01 to 0.1
20 | NC(=O)c1cnc(N[C@@H]2CCOC[C@@H]2N)nc1Nc1ccccc1 [Example 52, 2-(((3R,4R)-3-aminotetrahydro-2H-pyran-4-yl)amino)-4-(phenylamino)pyrimidine-5-carboxamide] | 0.1 to 1
21 | N#Cc1cccc(Nc2nc(N[C@@H]3CCOC[C@@H]3N)ncc2C(N)=O)c1 [Example 53, 2-(((3R,4R)-3-aminotetrahydro-2H-pyran-4-yl)amino)-4-((3-cyanophenyl)amino)pyrimidine-5-carboxamide] | 0.01 to 0.1
22 | N#Cc1ccc(Nc2nc(N[C@@H]3CCOC[C@@H]3N)ncc2C(N)=O)cc1 [Example 54, 2-(((3R,4R)-3-aminotetrahydro-2H-pyran-4-yl)amino)-4-((4-cyanophenyl)amino)pyrimidine-5-carboxamide] | 0.1 to 1
23 | CC[C@@H](Nc1ncc(C(N)=O)c(Nc2csc3ncccc23)n1)C(N)=O [Example 55, (R)-2-((1-amino-1-oxobutan-2-yl)amino)-4-(thieno[2,3-b]pyridin-3-ylamino)pyrimidine-5-carboxamide] | 0.01 to 0.1
24 | CC[C@@H](Nc1ncc(C(N)=O)c(Nc2cnn3ccccc23)n1)C(N)=O [Example 56, (R)-2-((1-amino-1-oxobutan-2-yl)amino)-4-(pyrazolo[1,5-a]pyridin-3-ylamino)pyrimidine-5-carboxamide] | 0.01 to 0.1
25 | CC[C@@H](Nc1ncc(C(N)=O)c(Nc2ccc3cccnc3c2)n1)C(N)=O [Example 57, (R)-2-((1-amino-1-oxobutan-2-yl)amino)-4-(quinolin-7-ylamino)pyrimidine-5-carboxamide] | 0.01 to 0.1
26 | CC[C@@H](Nc1ncc(C(N)=O)c(Nc2ccc(-c3cncs3)cc2)n1)C(N)=O [Example 58, (R)-2-((1-amino-1-oxobutan-2-yl)amino)-4-((4-(thiazol-5-yl)phenyl)amino)pyrimidine-5-carboxamide] | 0.01 to 0.1
27 | CC[C@@H](Nc1ncc(C(N)=O)c(Nc2ccc(-c3cnns3)cc2)n1)C(N)=O [Example 59, (R)-4-((4-(1,2,3-thiadiazol-5-yl)phenyl)amino)-2-((1-amino-1-oxobutan-2-yl)amino)pyrimidine-5-carboxamide] | 0.01 to 0.1
28 | CC[C@@H](Nc1ncc(C(N)=O)c(Nc2cccc(OC)c2)n1)C(N)=O [Example 60, (R)-2-((1-amino-1-oxobutan-2-yl)amino)-4-((3-methoxyphenyl)amino)pyrimidine-5-carboxamide] | 0.1 to 1
29 | CCC[C@@H](Nc1ncc(C(N)=O)c(Nc2cccc(OC)c2)n1)C(N)=O [Example 61, (R)-2-((1-amino-1-oxopentan-2-yl)amino)-4-((3-methoxyphenyl)amino)pyrimidine-5-carboxamide] | 0.1 to 1
30 | COc1cccc(Nc2nc(N[C@H](CC(C)C)C(N)=O)ncc2C(N)=O)c1 [Example 62, (R)-2-((1-amino-4-methyl-1-oxopentan-2-yl)amino)-4-((3-methoxyphenyl)amino)pyrimidine-5-carboxamide] | 0.01 to 0.1
31 | COc1cccc(Nc2nc(N[C@H](CC3CC3)C(N)=O)ncc2C(N)=O)c1 [Example 63, (R)-2-((1-amino-3-cyclopropyl-1-oxopropan-2-yl)amino)-4-((3-methoxyphenyl)amino)pyrimidine-5-carboxamide] | 0.1 to 1
32 | COc1cccc(Nc2nc(N[C@@H](C(N)=O)C3CC3)ncc2C(N)=O)c1 [Example 64, (R)-2-((2-amino-1-cyclopropyl-2-oxoethyl)amino)-4-((3-methoxyphenyl)amino)pyrimidine-5-carboxamide] | 0.1 to 1
33 | CC[C@@H](Nc1ncc(C(N)=O)c(Nc2cc(C)ns2)n1)C(N)=O [Example 65, (R)-2-((1-amino-1-oxobutan-2-yl)amino)-4-((3-methylisothiazol-5-yl)amino)pyrimidine-5-carboxamide] | 0.01 to 0.1
34 | CC[C@@H](Nc1ncc(C(N)=O)c(Nc2cnc3ccccc3c2)n1)C(N)=O [Example 68, (R)-2-(1-amino-1-oxobutan-2-ylamino)-4-(quinolin-3-ylamino)pyrimidine-5-carboxamide] | 0.01 to 0.1
35 | CC(C)[C@@H](Nc1ncc(C(N)=O)c(Nc2ccc3ncccc3c2)n1)C(N)=O [Example 69, (R)-2-(1-amino-3-methyl-1-oxobutan-2-ylamino)-4-(quinolin-6-ylamino)pyrimidine-5-carboxamide] | 0.01 to 0.1
36 | CC(C)[C@@H](Nc1ncc(C(N)=O)c(Nc2ccc3c(ccc[n+]3[O-])c2)n1)C(N)=O [Example 70, (R)-2-(1-amino-3-methyl-1-oxobutan-2-ylamino)-4-(quinolin-6-ylamino)pyrimidine-5-carboxamide N-oxide] | 0.1 to 1
